Results on 1 compound are retold here after ChEMBL document CHEMBL5252552, “Defined concatenated α6α1β3γ2 GABAA receptor constructs reveal dual action of pyrazoloquinolinone allosteric modulators” (Bioorg Med Chem, 2019).

Experiment [1] concerns the target T1, Gamma-aminobutyric acid receptor subunit alpha-6/beta-3/gamma-2 (Rattus norvegicus) (UniProt P18508+P30191+P63079). In words: Positive allosteric modulation of rat recombinant GABAA alpha6beta3gamma2 receptor expressed in Xenopus laevis oocytes assessed as maximal efficacy at -80 mV holding potential at 30 nM in presence of GABA EC1 to 1.5 by two-electrode voltage-clamp assay. Format: cell-based. As to conditions: Oocyte, filed as positive allosteric modulator.

Experiment [2] concerns the target Gamma-aminobutyric acid receptor subunit alpha-1/alpha-6/beta-3/gamma-2 (Rattus norvegicus, UniProt P18508+P30191+P62813+P63079). As to the kind of experiment: Positive allosteric modulation of rat recombinant GABAA alpha6beta3alpha1-gamma2beta3 receptor expressed in Xenopus laevis oocytes assessed as increase in GABA-induced current amplitude at -80 mV holding potential under less potent phase in presence of GABA EC1 to 1.5 by two-electrode voltage-clamp assay. In kind it is cell-based, Oocyte.

Experiment [3] addresses T2, Gamma-aminobutyric acid receptor subunit alpha-1/beta-3/gamma-2 (Rattus norvegicus) (UniProt P18508+P62813+P63079). In words: Positive allosteric modulation of rat recombinant GABAA alpha1beta3alpha1-gamma2beta3 receptor expressed in Xenopus laevis oocytes assessed as maximal efficacy at -80 mV holding potential at 10 uM in presence of GABA EC1 to 1.5 by two-electrode voltage-clamp assay. To be noted: Oocyte, filed as positive allosteric modulator. In kind it is cell-based.

Experiment [4] concerns the target T1, Gamma-aminobutyric acid receptor subunit alpha-6/beta-3/gamma-2 (Rattus norvegicus). As to the kind of experiment: Positive allosteric modulation of rat recombinant GABAA alpha6beta3gamma2 receptor expressed in Xenopus laevis oocytes assessed as maximal efficacy at -80 mV holding potential at 100 nM in presence of GABA EC1 to 1.5 by two-electrode voltage-clamp assay. Format: cell-based. To be noted: Oocyte, filed as positive allosteric modulator.

For experiment [5] the target is unchanged. As to the kind of experiment: Positive allosteric modulation of rat recombinant GABAA alpha6beta3gamma2 receptor expressed in Xenopus laevis oocytes assessed as maximal efficacy at -80 mV holding potential at 10 nM in presence of GABA EC1 to 1.5 by two-electrode voltage-clamp assay. Format: cell-based. To be noted: Oocyte.
Experiment [6] has the same target. As to the kind of experiment: Positive allosteric modulation of rat recombinant GABAA alpha6beta3alpha6-gamma2beta3 receptor expressed in Xenopus laevis oocytes assessed as maximal efficacy at -80 mV holding potential at 30 nM in presence of GABA EC1 to 1.5 by two-electrode voltage-clamp assay. To be noted: Oocyte, filed as positive allosteric modulator. Format: cell-based.

The target of experiment [7] is T2, Gamma-aminobutyric acid receptor subunit alpha-1/beta-3/gamma-2 (Rattus norvegicus). In words: Positive allosteric modulation of rat recombinant GABAA alpha1beta3gamma2 receptor expressed in Xenopus laevis oocytes assessed as maximal efficacy at -80 mV holding potential at 300 nM in presence of GABA EC1 to 1.5 by two-electrode voltage-clamp assay. In kind it is cell-based. As to conditions: Oocyte.

Experiment [8] concerns the target T1, Gamma-aminobutyric acid receptor subunit alpha-6/beta-3/gamma-2 (Rattus norvegicus). As to the kind of experiment: Positive allosteric modulation of rat recombinant GABAA alpha6beta3alpha6-gamma2beta3 receptor expressed in Xenopus laevis oocytes assessed as maximal efficacy at -80 mV holding potential at 1 nM in presence of GABA EC1 to 1.5 by two-electrode voltage-clamp assay. Format: cell-based. To be noted: Oocyte.

Experiment [9] has as its target T3, Gamma-aminobutyric acid receptor subunit alpha-1/alpha-6/beta-3/gamma-2 (Rattus norvegicus) (UniProt P18508+P30191+P62813+P63079). As to the kind of experiment: Positive allosteric modulation of rat recombinant GABAA gamma2beta3alpha1-beta3alpha6 receptor expressed in Xenopus laevis oocytes assessed as maximal efficacy at -80 mV holding potential at 30 nM in presence of GABA EC1 to 1.5 by two-electrode voltage-clamp assay. In kind it is cell-based. To be noted: Oocyte.

The target in experiment [10] is T2, Gamma-aminobutyric acid receptor subunit alpha-1/beta-3/gamma-2 (Rattus norvegicus). As to the kind of experiment: Positive allosteric modulation of rat recombinant GABAA alpha1beta3alpha1-gamma2beta3 receptor expressed in Xenopus laevis oocytes assessed as maximal efficacy at -80 mV holding potential at 10 nM in presence of GABA EC1 to 1.5 by two-electrode voltage-clamp assay. In kind it is cell-based. As to conditions: Oocyte.

The target is the same in experiment [11]. In words: Positive allosteric modulation of rat recombinant GABAA alpha1beta3alpha1-gamma2beta3 receptor expressed in Xenopus laevis oocytes assessed as maximal efficacy at -80 mV holding potential at 30 nM in presence of GABA EC1 to 1.5 by two-electrode voltage-clamp assay. Format: cell-based. To be noted: Oocyte.
Experiment [12] shares this target. In words: Positive allosteric modulation of rat recombinant GABAA alpha1beta3alpha1-gamma2beta3 receptor expressed in Xenopus laevis oocytes assessed as maximal efficacy at -80 mV holding potential at 1 uM in presence of GABA EC1 to 1.5 by two-electrode voltage-clamp assay. Format: cell-based. To be noted: Oocyte.
For experiment [13], the target named is T3, Gamma-aminobutyric acid receptor subunit alpha-1/alpha-6/beta-3/gamma-2 (Rattus norvegicus). In words: Positive allosteric modulation of rat recombinant GABAA gamma2beta3alpha1-beta3alpha6 receptor expressed in Xenopus laevis oocytes assessed as maximal efficacy at -80 mV holding potential at 100 nM in presence of GABA EC1 to 1.5 by two-electrode voltage-clamp assay. Format: cell-based. As to conditions: Oocyte, filed as positive allosteric modulator.

Experiment [14] has the same target. In words: Positive allosteric modulation of rat recombinant GABAA gamma2beta3alpha1-beta3alpha6 receptor expressed in Xenopus laevis oocytes assessed as maximal current at -80 mV holding potential under less potent phase in presence of GABA EC1 to 1.5 by two-electrode voltage-clamp assay relative to control. To be noted: Oocyte, filed as positive allosteric modulator. In kind it is cell-based.

Experiment [15] concerns the target T1, Gamma-aminobutyric acid receptor subunit alpha-6/beta-3/gamma-2 (Rattus norvegicus). As to the kind of experiment: Positive allosteric modulation of rat recombinant GABAA alpha6beta3alpha6-gamma2beta3 receptor expressed in Xenopus laevis oocytes assessed as maximal efficacy at -80 mV holding potential at 10 uM in presence of GABA EC1 to 1.5 by two-electrode voltage-clamp assay. In kind it is cell-based. As to conditions: Oocyte, filed as positive allosteric modulator.

Experiment [16] has as its target T2, Gamma-aminobutyric acid receptor subunit alpha-1/beta-3/gamma-2 (Rattus norvegicus). As to the kind of experiment: Positive allosteric modulation of rat recombinant GABAA alpha1beta3alpha1-gamma2beta3 receptor expressed in Xenopus laevis oocytes assessed as maximal efficacy at -80 mV holding potential at 300 nM in presence of GABA EC1 to 1.5 by two-electrode voltage-clamp assay. Format: cell-based. To be noted: Oocyte.

Experiment [17] shares this target. In words: Positive allosteric modulation of rat recombinant GABAA alpha1beta3alpha1-gamma2beta3 receptor expressed in Xenopus laevis oocytes assessed as maximal current at -80 mV holding potential under less potent phase in presence of GABA EC1 to 1.5 by two-electrode voltage-clamp assay relative to control. In kind it is cell-based. To be noted: Oocyte, filed as positive allosteric modulator.

In experiment [18] the target is T1, Gamma-aminobutyric acid receptor subunit alpha-6/beta-3/gamma-2 (Rattus norvegicus). In words: Positive allosteric modulation of rat recombinant GABAA alpha6beta3alpha6-gamma2beta3 receptor expressed in Xenopus laevis oocytes assessed as maximal efficacy at -80 mV holding potential at 10 nM in presence of GABA EC1 to 1.5 by two-electrode voltage-clamp assay. Format: cell-based. As to conditions: Oocyte.

The target is the same in experiment [19]. In words: Positive allosteric modulation of rat recombinant GABAA alpha6beta3alpha6-gamma2beta3 receptor expressed in Xenopus laevis oocytes assessed as maximal efficacy at -80 mV holding potential at 100 nM in presence of GABA EC1 to 1.5 by two-electrode voltage-clamp assay. Format: cell-based. To be noted: Oocyte, filed as positive allosteric modulator.

The target in experiment [20] is Gamma-aminobutyric acid receptor subunit alpha-1/beta-3/gamma-2 (Rattus norvegicus, UniProt P18508+P62813+P63079). As to the kind of experiment: Positive allosteric modulation of rat recombinant GABAA alpha1beta3alpha1-gamma2beta3 receptor expressed in Xenopus laevis oocytes assessed as increase in GABA-induced current amplitude at -80 mV holding potential under less potent phase in presence of GABA EC1 to 1.5 by two-electrode voltage-clamp assay. In kind it is cell-based, Oocyte.

Experiment [21] deals with T2, Gamma-aminobutyric acid receptor subunit alpha-1/beta-3/gamma-2 (Rattus norvegicus). In words: Positive allosteric modulation of rat recombinant GABAA alpha1beta3alpha1-gamma2beta3 receptor expressed in Xenopus laevis oocytes assessed as maximal efficacy at -80 mV holding potential at 30 uM in presence of GABA EC1 to 1.5 by two-electrode voltage-clamp assay. To be noted: Oocyte, filed as positive allosteric modulator. In kind it is cell-based.

Experiment [22] has as its target T3, Gamma-aminobutyric acid receptor subunit alpha-1/alpha-6/beta-3/gamma-2 (Rattus norvegicus). As to the kind of experiment: Positive allosteric modulation of rat recombinant GABAA alpha6beta3alpha1-gamma2beta3 receptor expressed in Xenopus laevis oocytes assessed as maximal efficacy at -80 mV holding potential at 100 nM in presence of GABA EC1 to 1.5 by two-electrode voltage-clamp assay. As to conditions: Oocyte. Format: cell-based.

pEC50: −log10 of the molar value.

Sequence of Gamma-aminobutyric acid receptor subunit alpha-1/beta-3/gamma-2 (P18508 whole entry): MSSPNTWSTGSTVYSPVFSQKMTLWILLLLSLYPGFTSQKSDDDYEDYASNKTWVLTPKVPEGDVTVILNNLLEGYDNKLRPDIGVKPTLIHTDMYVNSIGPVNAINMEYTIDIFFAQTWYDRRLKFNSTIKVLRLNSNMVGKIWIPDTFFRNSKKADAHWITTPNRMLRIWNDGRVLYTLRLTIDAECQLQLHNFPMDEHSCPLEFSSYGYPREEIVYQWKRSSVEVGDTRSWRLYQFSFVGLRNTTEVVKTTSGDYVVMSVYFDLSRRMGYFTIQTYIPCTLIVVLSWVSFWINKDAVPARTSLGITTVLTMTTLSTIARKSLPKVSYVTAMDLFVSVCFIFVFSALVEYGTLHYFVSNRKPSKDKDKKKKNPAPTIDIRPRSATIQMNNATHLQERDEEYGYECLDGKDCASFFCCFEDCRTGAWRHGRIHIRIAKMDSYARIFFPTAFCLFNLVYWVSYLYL
Sequence of Gamma-aminobutyric acid receptor subunit alpha-1/beta-3/gamma-2 (P62813 whole entry): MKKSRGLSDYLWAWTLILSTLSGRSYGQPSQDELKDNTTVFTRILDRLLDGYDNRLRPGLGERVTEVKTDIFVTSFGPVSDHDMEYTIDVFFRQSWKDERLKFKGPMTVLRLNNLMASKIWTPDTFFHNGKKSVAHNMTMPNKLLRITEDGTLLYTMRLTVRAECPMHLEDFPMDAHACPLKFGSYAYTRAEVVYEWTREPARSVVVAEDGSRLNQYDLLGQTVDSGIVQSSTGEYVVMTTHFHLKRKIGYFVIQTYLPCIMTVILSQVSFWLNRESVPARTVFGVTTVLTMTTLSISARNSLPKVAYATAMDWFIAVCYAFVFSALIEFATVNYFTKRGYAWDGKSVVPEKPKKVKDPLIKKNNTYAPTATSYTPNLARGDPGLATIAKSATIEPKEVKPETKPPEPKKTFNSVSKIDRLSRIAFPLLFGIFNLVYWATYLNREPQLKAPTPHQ
Sequence of Gamma-aminobutyric acid receptor subunit alpha-1/beta-3/gamma-2 (P63079 whole entry): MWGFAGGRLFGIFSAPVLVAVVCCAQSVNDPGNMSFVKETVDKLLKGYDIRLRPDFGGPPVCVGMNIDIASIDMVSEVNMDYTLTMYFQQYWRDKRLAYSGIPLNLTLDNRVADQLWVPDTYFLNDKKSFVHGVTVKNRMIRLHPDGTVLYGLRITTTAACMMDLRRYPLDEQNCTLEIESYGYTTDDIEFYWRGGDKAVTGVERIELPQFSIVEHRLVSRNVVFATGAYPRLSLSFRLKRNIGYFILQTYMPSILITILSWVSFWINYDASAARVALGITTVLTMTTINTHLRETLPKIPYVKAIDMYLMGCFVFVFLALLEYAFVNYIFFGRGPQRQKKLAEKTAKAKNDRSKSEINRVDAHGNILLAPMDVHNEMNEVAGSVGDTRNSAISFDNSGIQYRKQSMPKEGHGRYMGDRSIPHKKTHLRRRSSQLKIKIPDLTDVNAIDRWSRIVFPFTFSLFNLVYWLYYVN
Sequence of Gamma-aminobutyric acid receptor subunit alpha-1/alpha-6/beta-3/gamma-2 (P18508 whole entry): as the sequence (P18508 whole entry) above
Sequence of Gamma-aminobutyric acid receptor subunit alpha-1/alpha-6/beta-3/gamma-2 (P30191 whole entry): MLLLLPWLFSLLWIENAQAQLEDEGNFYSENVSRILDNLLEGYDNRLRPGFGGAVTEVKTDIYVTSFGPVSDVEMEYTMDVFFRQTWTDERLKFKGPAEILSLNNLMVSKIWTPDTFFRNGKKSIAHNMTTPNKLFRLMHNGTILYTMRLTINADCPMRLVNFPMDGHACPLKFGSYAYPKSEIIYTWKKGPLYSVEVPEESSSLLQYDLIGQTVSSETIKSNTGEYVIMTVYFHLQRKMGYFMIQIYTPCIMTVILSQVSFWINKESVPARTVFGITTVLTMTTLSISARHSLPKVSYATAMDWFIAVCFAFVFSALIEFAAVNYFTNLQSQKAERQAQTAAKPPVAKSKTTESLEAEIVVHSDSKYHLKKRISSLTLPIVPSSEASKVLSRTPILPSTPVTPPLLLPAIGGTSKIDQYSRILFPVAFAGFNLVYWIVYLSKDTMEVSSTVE
Sequence of Gamma-aminobutyric acid receptor subunit alpha-1/alpha-6/beta-3/gamma-2 (P62813 whole entry): as the sequence (P62813 whole entry) above
Sequence of Gamma-aminobutyric acid receptor subunit alpha-1/alpha-6/beta-3/gamma-2 (P63079 whole entry): as the sequence (P63079 whole entry) above

Consider `COc1ccc(-n2nc3c4ccc(Br)cc4[nH]cc-3c2=O)cc1`, for which the Efficacy in [1] was 49%; in [3], 157%; in [4] it was 46%; in [5], 24%; in experiment [6], 65%; in experiment [7], 11%. Besides, the Efficacy in experiment [8] worked out at 5%; in [9], 31%; in [10] it was 1%; in [11] it was 5%; in experiment [12] it was 34%; in experiment [13], 45%. Also, the Efficacy came to 621% in [15]; 17% in experiment [16]; 33% in experiment [18]; 101% in experiment [19]; 242% in [21]; 18% in experiment [22]. Besides, the pEC50 in [2] is 5.15; in experiment [20] it was 5.00. The %max was 230% in experiment [14] and 342% in [17].
